Reference: patent publication US10477864B2, “Microbiocidal quinoline (thio)carboxamide derivatives” (priority 2016, dated 2019)

Assays:
[1] = system: Botryotinia fuckeliana (Botrytis cinerea); assay: Botryotinia fuckeliana (Botrytis cinerea) / liquid culture (gray mould); type: cell-based; settings: 72 h, read-out: control of Botryotinia fuckeliana
Fusarium culmorum [2] = assay: microbe, parasite or virus in culture; type: cell-based; settings: read-out: control of Fusarium culmorum
Fusarium culmorum [3] = assay: whole plant or invertebrate; type: in vivo; settings: in Triticum aestivum, read-out: control of Fusarium culmorum
[4] = system: Glomerella lagenarium (Colletotrichum lagenarium); assay: Glomerella lagenarium (Colletotrichum lagenarium) / liquid culture (anthracnose); type: cell-based; settings: Colletotrichum orbiculare; read-out: control of Glomerella lagenarium

CC(C)(Cc1ccccc1)NC(=O)c1cnc2c(F)cccc2c1 [Compound E-11, N-(1,1-dimethyl-2-phenyl-ethyl)-8-fluoro-quinoline-3-carboxamide]
≥ 80%: inhibition of growth at 200 ppm [1] | inhibition of growth at 200 ppm (Fusarium culmorum [2]) | pest or weed control at 200 ppm (Fusarium culmorum [3])

CC(C)CC(C)(Cc1ccccc1)NC(=O)c1cc2ccccc2[n+]([O-])c1 (stereo not drawn) [Compound E-41, N-(1-benzyl-1,3-dimethyl-butyl)-1-oxido-quinolin-1-ium-3-carboxamide]
≥ 80%: inhibition of growth at 200 ppm [1] | inhibition of growth at 200 ppm (Fusarium culmorum [2])

Cc1ccc2ncc(C(=O)NC(C)(Cc3ccccc3)CC(C)C)cc2c1 (stereo not drawn) [Compound E-71, N-(1-benzyl-1,3-dimethyl-butyl)-6-methyl-quinoline-3-carboxamide]
≥ 80%: inhibition of growth at 200 ppm [1] | inhibition of growth at 200 ppm (Fusarium culmorum [2]) | pest or weed control at 200 ppm (Fusarium culmorum [3])

Cc1ccc2cc(C(=O)NC(C)(Cc3ccccc3)CC(C)C)cnc2c1 (stereo not drawn) [Compound E-72, N-(1-benzyl-1,3-dimethyl-butyl)-7-methyl-quinoline-3-carboxamide]
≥ 80%: inhibition of growth at 200 ppm [1] | inhibition of growth at 200 ppm (Fusarium culmorum [2]) | pest or weed control at 200 ppm (Fusarium culmorum [3])

CC(C)CC(C)(Cc1ccccc1)NC(=O)c1cnc2ccc(F)cc2c1 (stereo not drawn) [Compound E-73, N-(1-benzyl-1,3-dimethyl-butyl)-6-fluoro-quinoline-3-carboxamide]
≥ 80%: inhibition of growth at 200 ppm [1] | inhibition of growth at 200 ppm (Fusarium culmorum [2])

CC(C)CC(C)(Cc1ccccc1)NC(=O)c1cnc2cccc(F)c2c1 (stereo not drawn) [Compound E-74, N-(1-benzyl-1,3-dimethyl-butyl)-5-fluoro-quinoline-3-carboxamide]
≥ 80%: inhibition of growth at 200 ppm [1] | inhibition of growth at 200 ppm (Fusarium culmorum [2]) | pest or weed control at 200 ppm (Fusarium culmorum [3])

COc1cccc2ncc(C(=O)NC(C)(Cc3ccccc3)CC(C)C)cc12 (stereo not drawn) [Compound E-75, N-(1-benzyl-1,3-dimethyl-butyl)-5-methoxy-quinoline-3-carboxamide]
≥ 80%: inhibition of growth at 200 ppm [1] | inhibition of growth at 200 ppm (Fusarium culmorum [2]) | pest or weed control at 200 ppm (Fusarium culmorum [3])

CC(C)CC(C)(Cc1ccccc1)NC(=O)c1cnc2ccc(O)cc2c1 (stereo not drawn) [Compound E-76, N-(1-benzyl-1,3-dimethyl-butyl)-6-hydroxy-quinoline-3-carboxamide]
≥ 80%: inhibition of growth at 200 ppm [1] | inhibition of growth at 200 ppm (Fusarium culmorum [2]) | pest or weed control at 200 ppm (Fusarium culmorum [3])

Cc1ccc2ncc(C(=O)NC(C)(Cc3ccccc3)CC(F)(F)F)cc2c1 (stereo not drawn) [Compound E-77, N-(1-benzyl-3,3,3-trifluoro-1-methyl-propyl)-6-methyl-quinoline-3-carboxamide]
≥ 80%: inhibition of growth at 200 ppm [1] | inhibition of growth at 200 ppm (Fusarium culmorum [2]) | pest or weed control at 200 ppm (Fusarium culmorum [3])

CC(Cc1ccccc1)(CC(F)(F)F)NC(=O)c1cnc2ccc(Cl)cc2c1 (stereo not drawn) [Compound E-78, N-(1-benzyl-3,3,3-trifluoro-1-methyl-propyl)-6-chloro-quinoline-3-carboxamide]
≥ 80%: inhibition of growth at 200 ppm (Fusarium culmorum [2])

Cc1ccc2cc(C(=O)NC(C)(Cc3ccccc3)CC(F)(F)F)cnc2c1 (stereo not drawn) [Compound E-79, N-(1-benzyl-3,3,3-trifluoro-1-methyl-propyl)-7-methyl-quinoline-3-carboxamide]
≥ 80%: inhibition of growth at 200 ppm [1] | inhibition of growth at 200 ppm (Fusarium culmorum [2]) | pest or weed control at 200 ppm (Fusarium culmorum [3]) | inhibition of growth at 200 ppm [4]

CC(Cc1ccccc1)(CC(F)(F)F)NC(=O)c1cnc2cccc(F)c2c1 (stereo not drawn) [Compound E-80, N-(1-benzyl-3,3,3-trifluoro-1-methyl-propyl)-5-fluoro-quinoline-3-carboxamide]
≥ 80%: inhibition of growth at 200 ppm [1] | inhibition of growth at 200 ppm (Fusarium culmorum [2]) | pest or weed control at 200 ppm (Fusarium culmorum [3])

COc1cccc2ncc(C(=O)NC(C)(Cc3ccccc3)CC(F)(F)F)cc12 (stereo not drawn) [Compound E-81, N-(1-benzyl-3,3,3-trifluoro-1-methyl-propyl)-5-methoxy-quinoline-3-carboxamide]
≥ 80%: inhibition of growth at 200 ppm [1] | inhibition of growth at 200 ppm (Fusarium culmorum [2]) | pest or weed control at 200 ppm (Fusarium culmorum [3])

CC(Cc1ccccc1)(CC(F)(F)F)NC(=O)c1cnc2ccc(O)cc2c1 (stereo not drawn) [Compound E-82, N-(1-benzyl-3,3,3-trifluoro-1-methyl-propyl)-6-hydroxy-quinoline-3-carboxamide]
≥ 80%: inhibition of growth at 200 ppm [1] | inhibition of growth at 200 ppm (Fusarium culmorum [2]) | pest or weed control at 200 ppm (Fusarium culmorum [3])

CC(Cc1ccccc1)(CC(F)(F)F)NC(=O)c1cnc2ccc(F)cc2c1 (stereo not drawn) [Compound E-84, N-(1-benzyl-3,3,3-trifluoro-1-methyl-propyl)-6-fluoro-quinoline-3-carboxamide]
≥ 80%: inhibition of growth at 200 ppm [1] | inhibition of growth at 200 ppm (Fusarium culmorum [2]) | pest or weed control at 200 ppm (Fusarium culmorum [3])

Cc1nc2c(F)cccc2cc1C(=O)NC(C)(Cc1ccccc1)CC(F)(F)F (stereo not drawn) [Compound E-89, N-(1-benzyl-3,3,3-trifluoro-1-methyl-propyl)-8-fluoro-2-methyl-quinoline-3-carboxamide]
≥ 80%: inhibition of growth at 200 ppm [1] | inhibition of growth at 200 ppm (Fusarium culmorum [2]) | pest or weed control at 200 ppm (Fusarium culmorum [3]) | inhibition of growth at 200 ppm [4]

CCCC(Cc1ccccc1)(NC(=O)c1cnc2c(F)cccc2c1)C(F)(F)F (stereo not drawn) [Compound E-91, N-[1-benzyl-1-(trifluoromethyl)butyl]-8-fluoro-quinoline-3-carboxamide]
≥ 80%: inhibition of growth at 200 ppm [1] | inhibition of growth at 200 ppm (Fusarium culmorum [2]) | pest or weed control at 200 ppm (Fusarium culmorum [3]) | inhibition of growth at 200 ppm [4]

CC(Cc1ccccc1)(CC(F)F)NC(=O)c1cnc2c(F)cccc2c1 (stereo not drawn) [Compound E-95, N-(1-benzyl-3,3-difluoro-1-methyl-propyl)-8-fluoro-quinoline-3-carboxamide]
≥ 80%: inhibition of growth at 200 ppm [1] | inhibition of growth at 200 ppm (Fusarium culmorum [2]) | pest or weed control at 200 ppm (Fusarium culmorum [3]) | inhibition of growth at 200 ppm [4]

CC(Cc1ccccc1)(CC(F)(F)F)NC(=O)c1cnc2c(F)cccc2c1Cl (stereo not drawn) [Compound E-96, N-(1-benzyl-3,3,3-trifluoro-1-methyl-propyl)-4-chloro-8-fluoro-quinoline-3-carboxamide]
≥ 80%: inhibition of growth at 200 ppm [1] | inhibition of growth at 200 ppm (Fusarium culmorum [2]) | pest or weed control at 200 ppm (Fusarium culmorum [3]) | inhibition of growth at 200 ppm [4]

Cc1c(C(=O)NC(C)(Cc2ccccc2)CC(C)C)cnc2c(C#N)cccc12 (stereo not drawn) [Compound E-109, N-(1-benzyl-1,3-dimethyl-butyl)-8-cyano-4-methyl-quinoline-3-carboxamide]
≥ 80%: inhibition of growth at 200 ppm [1] | inhibition of growth at 200 ppm (Fusarium culmorum [2]) | pest or weed control at 200 ppm (Fusarium culmorum [3])

CC(CCO)(Cc1ccccc1)NC(=O)c1cnc2c(F)cccc2c1 (stereo not drawn) [Compound E-119, N-(1-benzyl-3-hydroxy-1-methyl-propyl)-8-fluoro-quinoline-3-carboxamide]
≥ 80%: inhibition of growth at 200 ppm [1] | inhibition of growth at 200 ppm (Fusarium culmorum [2])

CC(C=O)(Cc1ccccc1)NC(=O)c1cnc2c(F)cccc2c1 (stereo not drawn) [Compound E-120, N-(1-benzyl-1-methyl-2-oxo-ethyl)-8-fluoro-quinoline-3-carboxamide]
≥ 80%: inhibition of growth at 200 ppm (Fusarium culmorum [2])

C=C(C)CC(C)(Cc1ccccc1)NC(=O)c1cc2cccc(F)c2nc1C (stereo not drawn) [Compound E-124, N-(1-benzyl-1,3-dimethyl-but-3-enyl)-8-fluoro-2-methyl-quinoline-3-carboxamide]
≥ 80%: inhibition of growth at 200 ppm [1] | inhibition of growth at 200 ppm (Fusarium culmorum [2])

CC(C)CC(C)(Cc1ccccc1)NC(=O)c1cc2cccc(F)c2nc1F (stereo not drawn) [Compound E-125, N-(1-benzyl-1,3-dimethyl-butyl)-2,8-difluoro-quinoline-3-carboxamide]
≥ 80%: inhibition of growth at 200 ppm [1] | inhibition of growth at 200 ppm (Fusarium culmorum [2]) | pest or weed control at 200 ppm (Fusarium culmorum [3]) | inhibition of growth at 200 ppm [4]

C[C@](Cc1ccccc1)(CC(F)(F)F)NC(=O)c1cnc2c(F)cccc2c1 [Compound F-11, N-[(1S)-1-benzyl-3,3,3-trifluoro-1-methyl-propyl]-8-fluoro-quinoline-3-carboxamide]
≥ 80%: inhibition of growth at 200 ppm [1] | inhibition of growth at 200 ppm (Fusarium culmorum [2]) | pest or weed control at 200 ppm (Fusarium culmorum [3]) | inhibition of growth at 200 ppm [4]

C[C@@](Cc1ccccc1)(CC(F)(F)F)NC(=O)c1cnc2c(F)cccc2c1 [Compound F-12, N-[(1R)-1-benzyl-3,3,3-trifluoro-1-methyl-propyl]-8-fluoro-quinoline-3-carboxamide]
≥ 80%: inhibition of growth at 200 ppm [1] | inhibition of growth at 200 ppm (Fusarium culmorum [2]) | pest or weed control at 200 ppm (Fusarium culmorum [3]) | inhibition of growth at 200 ppm [4]

CC(C)C[C@@](C)(Cc1ccccc1)NC(=O)c1cnc2c(F)c(F)ccc2c1 [Compound F-22, N-[(1S)-1-benzyl-1,3-dimethyl-butyl]-7,8-difluoro-quinoline-3-carboxamide]
≥ 80%: inhibition of growth at 200 ppm [1] | inhibition of growth at 200 ppm (Fusarium culmorum [2]) | inhibition of growth at 200 ppm [4]

Cc1nc2c(F)cccc2cc1C(=O)N[C@](C)(Cc1ccccc1)CC(F)(F)F [Compound F-34, N-[(1R)-1-benzyl-3,3,3-trifluoro-1-methyl-propyl]-8-fluoro-2-methyl-quinoline-3-carboxamide]
≥ 80%: inhibition of growth at 200 ppm [1] | inhibition of growth at 200 ppm (Fusarium culmorum [2]) | inhibition of growth at 200 ppm [4]
